Experiments:
[1] = Leakage of drug from patch edges; type: physicochemical; conditions: within 10 minutes
Text: In a regular patch without the microspheres structure, when the patch is cut into smaller pieces, drug in the reservoir layer easily leaks from along the breaking edges. In the presence of the microspheres structure, the breakpoint usually occurs between mircrospheres, which make it difficult for the drug to penetrate through the backing layer. So, with the help of microspheres structure, the leakage of drug from the patch can be substantially controlled. Though drug could leak from those microspheres along the edge, where their coating would possibly be broken, for microspheres located away from the edge no leakage can be seen. In a quantitative measurement, within 10 minutes, 60% of sulforhodamine B was lost from the edges in patch.without microspheres structure, while only 10% leaked in the presence of this microspheres structure.

[2] = type: in vitro ADME, rat
Procedure: The experiment was performed in an in vitro perfusion device.
Patches (2 mm×2 mm) were put into intestine lumen (3 cm in length). One end of the lumen was connected to an infusion inlet, while the other end was connected to a receiving tube. Phosphate buffer solution (PBS) was infused in a constant rate (0.05 ml/min) into the lumen. The entire device was placed on a magnetic stirrer panel, and samples were taken from PBS outside the lumen at predetermined time interval. […] This perfusion system mimics in-vivo intestine fluid movement.
Bioavailability of drug transport from these patches was calculated. Bioavailability refers to the ratio of the amount of drug transported across the intestine to the total amount of drug released at the site of absorption.

[3] = Unidirectional release of drug from compressed patches in diffusion cell (PBS); type: physicochemical
Procedure: (2) Unidirectional Release of Drug from Compressed Patches: Release of a model drug (Sulforhodamine B) from patches was measured in vitro into phosphate buffered saline (PBS, pH 7.4, 0.01 M). To distinguish drug release from the mucoadhesive side and the backing side of the patch, the patches were placed in a custom-designed diffusion cell. The cell comprised two chambers placed side-by-side with an opening provided between the chambers of about 3.14 mm^2. A patch (4 mm in diameter) was placed between the two chambers and each chamber was filled with 6 ml PBS. Vacuum grease was used to seal the joint to avoid leakage of PBS. Amount of sulforhodamine B released from either side of the patch into the solution was quantified at 565 nm using a spectrophotometer (UV-1601, Shimadzu Corporation).
To assess whether unidirectionality of release is also observed when the patch is placed on the intestine, the following experiments were performed. A section of pig intestine was placed on a diffusion cell such that the mucosal side faced the upper (donor) chamber. The donor chamber was filled with 2 ml PBS. Under these conditions, the thickness of the PBS layer on the intestine was about […]. A sulforhodamine-containing patch (4 mm in diameter) was prepared using methods described above was gently placed on the intestine. A stirring bar was placed on a mesh, which was placed about 1 cm above the patch. The receiver chamber was filled with 12 ml PBS. A stirring bar was placed in the receiver chamber. The cell was placed on a magnetic stirrer and stirred at 400 rpm for 120 minutes. Amount of sulforhodamine B released into donor and receiver chambers was measured using the same spectrophotometer described above. Percentages of sulforhodamine B delivered into the receiver and donor chambers were calculated (Figure 12). By measuring the total amount of sulforhodamine B released from the patch, the percent of sulforhodamine B delivered into the intestine was also calculated.

[4] = tested on: non-diabetic rats; experiment: Intestinal delivery of insulin patches in non-diabetic rats (blood glucose); type: in vivo, Sprague Dawley (SD) rats; conditions: 10 IU/kg in the intestine
Procedure: Intestinal delivery of insulin patches in non-diabetic rats: All animal experiments were4conducted under aseptic conditions using institutionally approved protocols. Male Sprague Dawley (SD) rats, weighing 350-450 g fasted for 16 hours were anesthetized using gas anesthesia (1.25-4% isofluorane in oxygen). Rat intestine was exposed through a midline abdominal incision (2.0 cm). A small longitudinal incision (5 mm) was made about 5 cm from the proximal end of the small intestine. Patches (3-6 pieces, 2 mm in diameter) containing insulin (0.4-1.2 IU/patch, totally 5 IU/kg or 10 Iu/kg per rat) were randomly inserted through the opening into the lumen. The incisions were then sealed by surgical tissue (NEXABAND®, Veterinary Products Laboratories, Phoenix, Ariz.). […] Blood glucose level was measured using a glucometer (Excite® XL, Bayer Corporation, Elkhart, Ind.). […] The areas above the glucose curve (AAC) were calculated by the trapezoidal method (Carino G P, Jacob J S, Mathiowitz E. 2000. Nanosphere based oral insulin delivery. J Controlled Release 65:261-269). The apparent relative pharmacological bioavailability of insulin from non-diabetic rats was calculated by comparing the AAC following intestinal administration under different doses with that following subcutaneous administration.

Compound	sulforhodamine B leaked from the edges ([1]; patch in the presence of microspheres structure) [%]	sulforhodamine B lost from the edges ([1]; patch without microspheres structure) [%]	fraction transported across rat intestine from patches compared to solution form [2]	difference in release profile when different compression pressures were used during patch preparation [3]	drug released from the backing side of the patch ([3]; 120 minutes, PBS pH 7.4)	drug released from the mucoadhesive side of the patch ([3]; 120 minutes, PBS pH 7.4)	share of released drug that was released from the mucoadhesive side ([3]; compressed patch)	hypoglycemia after administration in the intestine [4]
CCN(CC)c1ccc2c(-c3ccc(S(=O)(=O)O)cc3S(=O)(=O)[O-])c3ccc(=[N+](CC)CC)cc-3oc2c1 [sulforhodamine B]	10	60	higher fraction	no significant difference	less than 0.3%	about 10%	more than 97%	
insulin solution: bovine insulin solution (pH 7), negative control administered in the intestine at 10 IU/kg								did not produce detectable hypoglycemia
